According to US20240208908A1, “CRYSTAL FORM OF PYRIDINE NITROGEN OXIDE COMPOUND AND USE THEREOF” (SHANGHAI JEMINCARE PHARMACEUTICAL CO., LTD, priority 2021, published 2024):

Key:
[1] = Pharmacokinetics in rats, single intravenous injection or intragastric administration; format: in vivo, male Sprague Dawley rats
Method: In this experimental embodiment, in vivo pharmacokinetic evaluation was evaluated in rats by single intravenous injection or intragastric oral administration.
Experimental methods and conditions: male Sprague Dawley rats; all animals were fasted overnight, and were given a single dose of the compound to be tested at 1 mg/kg (intravenous injection, solvent 5% DMSO/10% Solutol/85% Saline) and 10 mg/kg (intragastric administration) respectively, at 5 min, 15 min, 30 min, 1 hr, 2 hr, 4 hr, 6 hr, 8 hr and 24 h after drug administration, blood was collected from the submandibular vein, about 0.20 mL per sample was collected, heparin sodium was used for anticoagulation, and then it was placed on ice after collection and centrifuged within 1 hour to separate the plasma for testing. The concentration of the drug in the plasma was measured by liquid tandem mass spectrometry (LC/MS/MS), and the measured concentration was used to calculate pharmacokinetic parameters.

NaV1.8 = molecular target: T1, NaV1.8 (Homo sapiens, UniProt Q9Y5Y9); assay: Whole-cell patch-clamp, blocking activity on NaV1.8 channel current (CHO cell line stably expressing NaV1.8); format: cell-based; conditions: statement in words
T1 construct: expressed in transfected cells
Method: • 1. Test method: the patch-clamp technique was used to detect the effects of compound on the voltage-gated sodium channels (NaV) 1.1 to 1.8 subtype currents
• 1) the specific information of CHO cell line stably expressing NaV1.8 channel was as follows: SCN10A: NM_006514 • 2) Cells were cultured in HAM'S/F-12 medium containing 10% fetal bovine serum, 10 μg/mL Blasticidin, 200 μg/mL Hygromycin B and 100 μg/mL Zeocin at 37° C. and 5% carbon dioxide concentration. • 3) Cell passage: the old medium was removed and washed once with PBS, and then 1 mL of 0.25%-Trypsin-EDTA solution was added and incubated at 37° C. for 1.5 minutes. When the cells were detached from the bottom of the plate, 5 mL of 37° C. prewarmed complete medium was added. […]
Double-pulse mode was performed by two 0 mV depolarization test pulses (TP1 and TP2) for 50 ms. […] Data acquisition was repeated at 20 s intervals and the current peaks at two test pulses were measured.
While the NaV channel current recorded in the whole cell was stable, the drug was administered, and each drug concentration was applied for 5 minutes (or the current is stabilized) and then the next concentration was detected; each test compound was detected at multiple concentrations. […] The current detected by each cell in the external fluid without the compounds was used as its own control group. Multiple cells were detected independently and repeatedly. […]

[2] = Suspension competition test of crystal forms; format: physicochemical
Method: In order to further study the transformation relationship between the free anhydrous crystal form and the hydrate crystal form, a suspension competition test was carried out on the anhydrous crystal form B/G and the hydrate crystal form A. Firstly, the suspension competition test between […] B and G was set up at 5° C., room temperature and 50° C. in ACN and room temperature in EtOAc. The specific steps are as follows: 1) saturated solution of the free state was prepared in different solvent systems at corresponding temperatures; 2) the corresponding free crystal form sample was added into 0.5 mL of the saturated solution to form a suspension; 3) the mixture was magnetically stirred under corresponding temperature conditions; 4) after stirring for 1 to 5 days, the solid was separated for XRPD testing.
Therefore, a suspension competition test of stable anhydrous crystal form B at room temperature and hydrate form A with different water activities (aw=0/0.2/0.4/0.6/0.8/1.0) of ACN/H2O at room temperature was set up. […] Reference source not found.

[3] = Solid-state stability experiment (XRPD, HPLC); format: physicochemical; conditions: for Crystal form variation: XRPD
Method: The stability test in the high-performance liquid chromatography (IPLC) test used in the present disclosure is tested by an Agilent 1260 high-performance liquid chromatograph, and the analytical conditions are shown in Table 11.
In order to evaluate the solid stability of the free anhydrous crystal form B, an appropriate amount of the sample was respectively weighed, placed at 60° C. for 24 hours, and exposed at 25° C./60% RH and 40° C./75[…] for one week. The crystal changes of the solid samples placed under different conditions were tested by XRPD, and the chemical stability was evaluated by HPLC.

[4] = 25° C./60% RH/exposure, one week
[5] = 40° C./75% RH/exposure, one week
[6] = statement in words, all test conditions

T1 sequence (Q9Y5Y9 whole entry): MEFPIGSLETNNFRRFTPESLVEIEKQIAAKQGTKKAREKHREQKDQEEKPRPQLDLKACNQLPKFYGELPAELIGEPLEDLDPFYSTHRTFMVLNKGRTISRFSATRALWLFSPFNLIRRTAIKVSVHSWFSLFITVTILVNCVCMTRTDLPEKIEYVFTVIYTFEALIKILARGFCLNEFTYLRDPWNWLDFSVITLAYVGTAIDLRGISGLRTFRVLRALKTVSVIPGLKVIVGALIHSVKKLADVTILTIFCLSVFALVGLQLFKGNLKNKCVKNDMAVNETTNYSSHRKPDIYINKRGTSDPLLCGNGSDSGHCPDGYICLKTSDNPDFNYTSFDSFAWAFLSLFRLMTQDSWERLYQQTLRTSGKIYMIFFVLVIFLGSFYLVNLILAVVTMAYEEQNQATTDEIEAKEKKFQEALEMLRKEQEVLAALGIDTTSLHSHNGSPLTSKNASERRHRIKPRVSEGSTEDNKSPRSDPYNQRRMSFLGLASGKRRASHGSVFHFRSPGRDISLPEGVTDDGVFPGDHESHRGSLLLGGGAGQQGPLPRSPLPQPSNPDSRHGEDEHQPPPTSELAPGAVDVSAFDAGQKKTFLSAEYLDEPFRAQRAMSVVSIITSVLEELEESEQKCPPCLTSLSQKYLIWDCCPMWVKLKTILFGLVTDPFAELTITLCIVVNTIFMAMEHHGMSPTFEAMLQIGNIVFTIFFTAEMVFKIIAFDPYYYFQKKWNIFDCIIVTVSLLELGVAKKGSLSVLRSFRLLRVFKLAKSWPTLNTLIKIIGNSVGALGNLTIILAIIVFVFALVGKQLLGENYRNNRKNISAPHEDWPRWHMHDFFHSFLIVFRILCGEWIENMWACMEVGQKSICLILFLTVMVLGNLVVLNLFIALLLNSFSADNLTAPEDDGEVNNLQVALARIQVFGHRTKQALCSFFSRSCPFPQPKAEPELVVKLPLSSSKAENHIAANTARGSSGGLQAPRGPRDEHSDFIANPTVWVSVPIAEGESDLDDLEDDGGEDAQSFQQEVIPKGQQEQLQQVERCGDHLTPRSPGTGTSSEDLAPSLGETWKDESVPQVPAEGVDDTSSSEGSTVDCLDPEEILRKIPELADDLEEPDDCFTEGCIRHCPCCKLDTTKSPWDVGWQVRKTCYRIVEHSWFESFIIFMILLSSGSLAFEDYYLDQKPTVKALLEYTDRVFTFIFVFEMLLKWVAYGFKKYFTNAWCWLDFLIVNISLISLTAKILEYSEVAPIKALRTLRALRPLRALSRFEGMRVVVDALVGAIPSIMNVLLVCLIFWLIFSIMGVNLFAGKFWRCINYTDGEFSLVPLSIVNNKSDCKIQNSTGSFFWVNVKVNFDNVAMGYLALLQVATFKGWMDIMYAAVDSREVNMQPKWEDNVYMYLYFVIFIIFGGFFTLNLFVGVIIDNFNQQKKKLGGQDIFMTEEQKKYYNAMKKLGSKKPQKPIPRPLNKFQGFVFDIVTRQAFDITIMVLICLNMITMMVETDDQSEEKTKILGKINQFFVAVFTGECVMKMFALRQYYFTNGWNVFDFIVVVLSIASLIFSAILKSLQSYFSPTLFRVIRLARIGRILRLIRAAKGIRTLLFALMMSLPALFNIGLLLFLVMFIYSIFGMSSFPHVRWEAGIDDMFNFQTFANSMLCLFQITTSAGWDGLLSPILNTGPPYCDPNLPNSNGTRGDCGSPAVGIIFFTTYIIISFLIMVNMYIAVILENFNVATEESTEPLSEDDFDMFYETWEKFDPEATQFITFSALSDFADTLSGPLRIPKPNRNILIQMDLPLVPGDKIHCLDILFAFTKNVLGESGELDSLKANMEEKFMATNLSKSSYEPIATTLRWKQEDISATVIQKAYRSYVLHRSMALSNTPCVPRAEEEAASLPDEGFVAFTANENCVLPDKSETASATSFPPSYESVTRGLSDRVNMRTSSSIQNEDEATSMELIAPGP

O=C(Nc1ccc[n+]([O-])c1)c1cc(Cl)c(Cl)cc1Oc1ccc(OC(F)(F)F)cc1 [Compound of formula (I)]
F ([1]; rat, intragastric 10 mg/kg): 72.59% | pharmacokinetic absorption in rats ([1]; statement in words): good pharmacokinetic absorption | blocking effect on NaV1.8 channel activity (NaV1.8): obvious blocking effect

O=C(Nc1ccc[n+]([O-])c1)c1cc(Cl)c(Cl)cc1Oc1ccc(OC(F)(F)F)cc1 [Crystal form B/G]
crystal form obtained in suspension competition ([2]; ACN at 5° C., room temperature, 50° C. and EtOAc at room temperature): only the free crystal form B was obtained | Competition test result (crystal form obtained) ([2]; test 22-B1, ACN (aw to 0), 5° C.): Free crystal form B | Competition test result (crystal form obtained) ([2]; test 22-B2, ACN (aw to 0), room temperature): Free crystal form B | Competition test result (crystal form obtained) ([2]; test 22-B3, ACN (aw to 0), 50° C.): Free crystal form B | Competition test result (crystal form obtained) ([2]; test 22-B4, EtOAc (aw to 0), room temperature): Free crystal form B

O=C(Nc1ccc[n+]([O-])c1)c1cc(Cl)c(Cl)cc1Oc1ccc(OC(F)(F)F)cc1 [Crystal form A/B]
crystal form obtained in suspension competition ([2]; ACN/H2O, room temperature, aw=0 to 0.4): anhydrous crystal form B was obtained | crystal form obtained in suspension competition ([2]; ACN/H2O, room temperature, aw=0.6 to 1 (pure water)): hydrate crystal form A was obtained | Competition test result (crystal form obtained) ([2]; test 22-A1, ACN (aw to 0), room temperature): Free crystal form B | Competition test result (crystal form obtained) ([2]; test 22-A2, ACN/H2O (981:19, aw to 0.2), room temperature): Free crystal form B | Competition test result (crystal form obtained) ([2]; test 22-A3, ACN/H2O (957:43, aw to 0.4), room temperature): Free crystal form B | Competition test result (crystal form obtained) ([2]; test 22-A4, ACN/H2O (924:76, aw to 0.6), room temperature): Free crystal form B | Competition test result (crystal form obtained) ([2]; test 22-A5, ACN/H2O (87:13, aw to 0.8), room temperature): Free crystal form B | Competition test result (crystal form obtained) ([2]; test 22-A6, H2O (aw to 1.0), room temperature): Free crystal form B

O=C(Nc1ccc[n+]([O-])c1)c1cc(Cl)c(Cl)cc1Oc1ccc(OC(F)(F)F)cc1 [Free crystal form B]
stability and druggability compared with hydrate crystal form ([2]; conclusion in words): better stability | Purity [3, 4]: 99.90 area % | Relative to initial purity [3, 4]: 99.99% | Crystal form variation [3, 4]: Constant | Purity [3, 5]: 99.90 area % | Relative to initial purity [3, 5]: 99.99% | Crystal form variation [3, 5]: Constant | Purity ([3]; 60° C./closed, 24 hours): 99.91 area % | Relative to initial purity ([3]; 60° C./closed, 24 hours): 100.00% | Crystal form variation ([3]; 60° C./closed, 24 hours): Constant | Purity ([3]; Start): 99.91 area % | HPLC purity under the test conditions [3, 6]: not decreased obviously | crystal form change under the test conditions [3, 6]: not changed
